# What was measured:
# Test in all cases: Histone peptide microarray
# Type in all cases: binding, human
# AIRE (PP) = conditions: AIRE (PP)
# Method in brief: (§1)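 GST-PHD reader, 0.5 μM, probed on 293-peptide histone array (single/combinatorial PTMs); optimized array protocol; signal = mean ± SD, n = 4.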
# BAZ2B = conditions: BAZ2B
# Method in brief: as §1
# BPTF (PB) = conditions: BPTF (PB)
# Method in brief: as §1
# CHD4 (PPCC) = conditions: CHD4 (PPCC)
# Method in brief: as §1
# CHD5 (PCC) = conditions: CHD5 (PCC)
# Method in brief: as §1
# CHD5 (PPCC) = conditions: CHD5 (PPCC)
# Method in brief: as §1
# DIDO1 = tested on: DIDO1
# Method in brief: as §1
# DPF2 (PPC2W2) = conditions: DPF2 (PPC2W2)
# Method in brief: as §1
# ING1 = tested on: ING1
# Method in brief: as §1
# ING2 = tested on: ING2
# Method in brief: as §1
# ING3 = tested on: ING3
# Method in brief: as §1
# ING4 = tested on: ING4
# Method in brief: as §1
# ING5 = tested on: ING5
# Method in brief: as §1
# KDM4C (TTP) = conditions: KDM4C (TTP)
# Method in brief: as §1
# KDM5A (1) = conditions: KDM5A (1)
# Method in brief: as §1
# KDM5A (3) = conditions: KDM5A (3)
# Method in brief: as §1
# KDM5B (1) = conditions: KDM5B (1)
# Method in brief: as §1
# KDM5B (3) = conditions: KDM5B (3)
# Method in brief: as §1
# KDM7A = conditions: KDM7A
# Method in brief: as §1
# MLL5 = tested on: MLL5
# Method in brief: as §1
# MORC3 (CW) = conditions: MORC3 (CW)
# Method in brief: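 Readout is array binding signal, reported as the mean and standard deviation over four replicates. Each purified GST-fused PHD domain was incubated at 0.5 μM with a library of 293 modified histone peptides.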
# PHF13 = tested on: PHF13
# Method in brief: as §1
# PHF21A = conditions: PHF21A
# Method in brief: as §1
# PHF23 = tested on: PHF23
# Method in brief: as §1
# PHF2 = tested on: PHF2
# Method in brief: as §1
# PHF8 = tested on: PHF8
# Method in brief: as §1
# PHRF1 (RP) = conditions: PHRF1 (RP)
# Method in brief: as §1
# RAG2 = tested on: RAG2
# Method in brief: as §1
# SP140L = conditions: SP140L
# Method in brief: as §1
# TAF3 = tested on: TAF3
# Method in brief: as §1
# TRIM66 (PB) = conditions: TRIM66 (PB)
# Method in brief: as §1
# [1] = GST-tagged, arrays performed twice, n of 4
# [2] = sheet "Array Heatmap", each array performed twice, total n = 4
substance,measurement,setting,value
H4K5ac + K8ac: H4 1-23,Array Heatmap value (peptide array binding signal),AIRE (PP); [1],0.5662
same,Array Heatmap value (peptide array binding signal),BAZ2B; [1],0.4714
same,Array Heatmap value (peptide array binding signal),BPTF (PB); [1],0.3517
same,Array Heatmap value (peptide array binding signal),CHD4 (PPCC); [1],0.551
same,Array Heatmap value (peptide array binding signal),CHD5 (PCC); [1],0.8034
same,Array Heatmap value (peptide array binding signal),CHD5 (PPCC); [1],0.5854
same,Array Heatmap value (peptide array binding signal),"DIDO1; DIDO1, GST-tagged, arrays performed twice, n of 4",0.6312
same,Array Heatmap value (peptide array binding signal),DPF2 (PPC2W2); [1],0.6807
same,Array Heatmap value (peptide array binding signal),"ING1; ING1, GST-tagged, arrays performed twice, n of 4",0.5183
same,Array Heatmap value (peptide array binding signal),"ING2; ING2, GST-tagged, arrays performed twice, n of 4",0.5873
same,Array Heatmap value (peptide array binding signal),"ING3; ING3, GST-tagged, arrays performed twice, n of 4",0.4856
same,Array Heatmap value (peptide array binding signal),"ING4; ING4, GST-tagged, arrays performed twice, n of 4",0.4756
same,Array Heatmap value (peptide array binding signal),"ING5; ING5, GST-tagged, arrays performed twice, n of 4",0.3695
same,Array Heatmap value (peptide array binding signal),KDM4C (TTP); [1],0.5523
same,Array Heatmap value (peptide array binding signal),KDM5A (1); [1],0.4957
same,Array Heatmap value (peptide array binding signal),KDM5A (3); [1],0.4472
same,Array Heatmap value (peptide array binding signal),KDM5B (1); [1],0.6318
same,Array Heatmap value (peptide array binding signal),KDM5B (3); [1],0.5165
same,Array Heatmap value (peptide array binding signal),KDM7A; [1],0.4235
same,Array Heatmap value (peptide array binding signal),"MLL5; MLL5, GST-tagged, arrays performed twice, n of 4",0.528
same,Array Heatmap value (peptide array binding signal),MORC3 (CW); [1],0.3673
same,Array Heatmap value (peptide array binding signal),"PHF13; PHF13, GST-tagged, arrays performed twice, n of 4",0.6182
same,Array Heatmap value (peptide array binding signal),PHF21A; [1],0.4994
same,Array Heatmap value (peptide array binding signal),"PHF23; PHF23, GST-tagged, arrays performed twice, n of 4",0.5198
same,Array Heatmap value (peptide array binding signal),"PHF2; PHF2, GST-tagged, arrays performed twice, n of 4",0.4759
same,Array Heatmap value (peptide array binding signal),"PHF8; PHF8, GST-tagged, arrays performed twice, n of 4",0.3992
same,Array Heatmap value (peptide array binding signal),PHRF1 (RP); [1],0.424
same,Array Heatmap value (peptide array binding signal),"RAG2; RAG2, GST-tagged, arrays performed twice, n of 4",0.2557
same,Array Heatmap value (peptide array binding signal),SP140L; [1],0.3819
same,Array Heatmap value (peptide array binding signal),"TAF3; TAF3, GST-tagged, arrays performed twice, n of 4",0.2841
same,Array Heatmap value (peptide array binding signal),TRIM66 (PB); [1],0.5724
H4K5ac + K8me1 + K12ac + K16ac: H4 1-23,Array Heatmap value (peptide array signal),AIRE (PP); [2],0.5672
same,Array Heatmap value (peptide array signal),BAZ2B; [2],0.5032
same,Array Heatmap value (peptide array signal),BPTF (PB); [2],0.382
same,Array Heatmap value (peptide array signal),CHD4 (PPCC); [2],0.5762
same,Array Heatmap value (peptide array signal),CHD5 (PCC); [2],0.8607
same,Array Heatmap value (peptide array signal),CHD5 (PPCC); [2],0.5973
same,Array Heatmap value (peptide array signal),"DIDO1; DIDO1, sheet ""Array Heatmap"", each array performed twice, total n = 4",0.7292
same,Array Heatmap value (peptide array signal),DPF2 (PPC2W2); [2],0.6672
same,Array Heatmap value (peptide array signal),"ING1; ING1, sheet ""Array Heatmap"", each array performed twice, total n = 4",0.5458
same,Array Heatmap value (peptide array signal),"ING2; ING2, sheet ""Array Heatmap"", each array performed twice, total n = 4",0.602
same,Array Heatmap value (peptide array signal),"ING3; ING3, sheet ""Array Heatmap"", each array performed twice, total n = 4",0.4952
same,Array Heatmap value (peptide array signal),"ING4; ING4, sheet ""Array Heatmap"", each array performed twice, total n = 4",0.5013
same,Array Heatmap value (peptide array signal),"ING5; ING5, sheet ""Array Heatmap"", each array performed twice, total n = 4",0.3988
same,Array Heatmap value (peptide array signal),KDM4C (TTP); [2],0.5456
same,Array Heatmap value (peptide array signal),KDM5A (1); [2],0.5072
same,Array Heatmap value (peptide array signal),KDM5A (3); [2],0.4998
same,Array Heatmap value (peptide array signal),KDM5B (1); [2],0.7009
same,Array Heatmap value (peptide array signal),KDM5B (3); [2],0.4848
same,Array Heatmap value (peptide array signal),KDM7A; [2],0.4269
same,Array Heatmap value (peptide array signal),"MLL5; MLL5, sheet ""Array Heatmap"", each array performed twice, total n = 4",0.5641
same,Array Heatmap value (peptide array signal),MORC3 (CW); [2],0.4169
same,Array Heatmap value (peptide array signal),"PHF13; PHF13, sheet ""Array Heatmap"", each array performed twice, total n = 4",0.643
same,Array Heatmap value (peptide array signal),PHF21A; [2],0.4984
same,Array Heatmap value (peptide array signal),"PHF23; PHF23, sheet ""Array Heatmap"", each array performed twice, total n = 4",0.5588
same,Array Heatmap value (peptide array signal),"PHF2; PHF2, sheet ""Array Heatmap"", each array performed twice, total n = 4",0.5076
same,Array Heatmap value (peptide array signal),"PHF8; PHF8, sheet ""Array Heatmap"", each array performed twice, total n = 4",0.4058
same,Array Heatmap value (peptide array signal),PHRF1 (RP); [2],0.4565
same,Array Heatmap value (peptide array signal),"RAG2; RAG2, sheet ""Array Heatmap"", each array performed twice, total n = 4",0.2535
same,Array Heatmap value (peptide array signal),SP140L; [2],0.3759
same,Array Heatmap value (peptide array signal),"TAF3; TAF3, sheet ""Array Heatmap"", each array performed twice, total n = 4",0.2847
same,Array Heatmap value (peptide array signal),TRIM66 (PB); [2],0.6845

# — paper PMC6979384, “Characterization of the plant homeodomain (PHD) reader family for their histone tail interactions” (Epigenetics & Chromatin, 2020)
